In patent publication US8110217B2, “Sphingomyelin liposomes for the treatment of hyperactive bladder disorders” (priority 2001, dated 2012):
Entries after “also recorded” stand apart in the source; their conditions may differ.

Test system: hyperactive bladder (PS/KCl)
Test: Continuous CMG, hyperactive bladder induced by PS/KCl (Examples 5-6)
Type: in vivo, female Sprague-Dawley rats
Conditions: for Amplitude / Compliance / ICI / PT: N=6
Description: This was followed by instillation of liposomes (LP) in saline (in the case of the former) or LP/KCl.
Intravesical bladder pressure was recorded via a transurethral catheter in adult female Sprague-Dawley rats anesthetized with urethane (1.2 g/kg) administered by subcutaneous injection (sc). Some animals were pretreated with capsaicin (125 mg/kg, sc) four days prior to the experiments. […] Parameters measured included intercontraction interval (ICI), amplitude of bladder contractions, compliance and micturition pressure threshold (PT).
Animal Preparation. Thirty-four female Sprague-Dawley rats (250-300 g) were used in this study. Animals were anesthetized with urethane (1.2 g/kg, sc). Body temperature was maintained in the physiological range using a heating lamp.
Cystometrogram (CMG). A transurethral bladder catheter (PE-50) was connected via a three-way stopcock to a pressure transducer and to a syringe pump. This was used to record intravesical pressure and to infuse solutions into the bladder. A control CMG was performed by slowly filling the bladder with saline (0.04 ml/min) to elicit repetitive voiding. The parameters recorded were amplitude, PT, compliance, and ICI of reflex bladder contractions. Measurements in each animal represented the average of 3 to 5 bladder contractions.
Induction of a Hyperactive Bladder. […] L. Cheng et al., 1993, Am. J. Physiol. 265:R132-138). The experimental design is illustrated in FIG. 7. The KCl concentration used was within the range of concentrations present in normal rat urine (M. Ohnishi et al., 2001, Toxicol. Appl. Pharmacol. 174:122-129).
Preparation of Liposomes (LP). LP were prepared as described by Kirby and Gregoriadis (C. J. Kirby and G. Gregoriadia, 1984, “A simple procedure for preparing liposomes capable of high encapsulation efficiency under mild conditions,” Liposome Technology; G. Gregnoriadis, Ed., C.R.C. Press, Inc., Boca Raton, Fla., Vol. 1, p. 20). Briefly, LP were constructed as a 2:1 molar ratio of L-α-phosphatidylcholine and cholesterol (Sigma Chemical Co., St. Louis, Mo.) to a final lipid concentration of 2 mg/ml in saline. Lipids in chloroform were dried down together in the proper ratio under nitrogen. The residues were reconstituted as LP in saline or 500 mM KCl by intense sonication.
Statistical Analyis. Statistical analyses were performed using Student's t test for paired or unpaired data, where applicable. A p-value less than 0.05 was considered significant. All data are expressed in Example 2 (below) as means±S.E.

[1] = Table 1B series: saline, KCl 500 mM 1 h, PS/KCl 1 h, LP/KCl 2 h
[2] = Table 1C series: saline, KCl 500 mM 1 h, PS/KCl 1 h
[3] = Table 1C: KCl infusion 2 h after PS/KCl
[4] = infusion after PS/KCl, vs pretreatment

Question: What does the source list for [Cl-].[K+] [KCl]?
Answer: PT change (PS/KCl series, vs pretreatment): significantly increased; Amplitude [1]: 28.8 ± 1.2 cm H2O; Compliance [1]: 0.284±0.028 ml/cm H2O; ICI [1]: 15.8 ± 1.4 min; PT [1]: 8.2 ± 0.9 cm H2O; Amplitude [2]: 28.8 ± 2.2 cm H2O; Compliance [2]: 0.226±0.050 ml/cm H2O; ICI [2]: 16.3 ± 1.5 min; PT [2]: 6.8 ± 0.6 cm H2O; Amplitude [3]: 33.0 ± 2.3 cm H2O; Compliance [3]: 0.043±0.014 ml/cm H2O; ICI [3]: 2.9 ± 0.5 min; PT [3]: 11.8 ± 1.6 cm H2O; change of ICI / CMGs (infused alone: PS 10 mg/ml or KCl 500 mM): not changed; also recorded: did not significantly change the CMGs; Compliance change [4]: further reduced; ICI change [4]: not significantly changed; also recorded: did not alter the ICI for periods as long as 120 min
